Read-outs that look alike come from different tables or passages of the source.
Assays:
B16F10 tumors = format: in vivo; settings: for anti-tumor effect: nutlin-3a added to CTX/VO-OHpic, FIG. 8B
Experimental: In vivo tumor studies: The B16F10 and E.G7 (EL4-OVA) cell lines were obtained from ATCC. B16-OVA (B16F10 transfected with full-length chicken ovalbumin) clone MO4 was according to Falo et al. ((1995) Nat. Med. 1: 649-653). B16F10 cells expressing EGFP protein (B16-GFP cells) were derived using lentiviral transfection. Tumor implantation was performed as described (Sharma et al., (2007) J. Clin. Invest. 117: 2570-2582), using 1×10^5 cells for B16F10 and 1×10^6 cells for other cell lines (large inocula were used to ensure rapid tumor engraftment and immune suppression). […] Tumor volume was calculated from orthogonal diameters using the formula V=L×W^2×π/6. Mice received approved euthanasia when tumors reached a size of 300 mm^2 (product of orthogonal diameters); death was never used a planned endpoint in any study.
(§1) Tumor implantation was performed as described (Sharma et al., (2007) J. Clin. Invest. 117: 2570-2582). VO-OHpic was given at 10 mg/kg/day i.p., in 10% DMSO/PBS. Cyclophosphamide was given at 150 mg/kg i.p×1 dose; and oxaliplatin at 5 mg/kg i.p×1 dose. Nutlin-3a was administered daily at 10 mg/kg/day i.p. For checkpoint blockade, mice received anti-CTLA-4 plus a cocktail of antibodies against the PD-1 pathway. Vaccines and T cell adoptive transfer studies were performed as described (Sharma et al., (2015) Sci. Advances. 1: e1500845).
VO-OHpic/CTX, nutlin-3a, oxaliplatin and immunotherapy regimens: The vanadate compound VO-OHpic (Mak et al., (2010) J. Chem. Biol. 3: 157-163) inhibits PTEN activity, and this drug was used to destabilize PTEN+Tregs during chemotherapy. Like all of the available PTEN-inhibitors, VO-OHpic can also affect other phosphatases (Spinelli et al., (2015) Adv. Biol. Regul. 57: 102-111).
VO-OHpic was given at 10 mg/kg/day i.p., in 10% DMSO/PBS. Cyclophosphamide was given at 150 mg/kg i.p×1 dose. Oxaliplatin was given at 5 mg/kg i.p×1 dose. […] For checkpoint blockade, mice received anti-CTLA-4 (clone 9D9, BioXcell) plus a cocktail of antibodies against the PD-1 pathway: anti-PD-L2, clone TY25 (Yamazaki et al., (2002) J. Immunol. 169: 5538-5545); anti-PD-1, clone J43 (Agata et al., (1996) Int. Immunol. 8: 765-772); and anti-PD-L1, clone MIH7 (Tsushima et al., (2003) Eur. J. Immunol. 33: 2773-2782). A cocktail was used in order to block the PD-1 pathway as completely as possible and thus minimize any peculiarities of a single blocking antibody.

E.G7 tumors = test: RIP-mOVA mice with E.G7 tumors treated with oxaliplatin with or without nutlin; format: in vivo; settings: nutlin-3a added to oxaliplatin
Experimental: A classical model of ICD was first tested in which EL4-OVA lymphoma tumors (clone E.G7) are treated with oxaliplatin chemotherapy (Ghiringhelli et al., (2009) Nat. Med. 15: 1170-1178). E.G7 bears the same model antigen as B16-OVA (described with the RIP-mOVA model, above), so it was possible to test the effects of nutlin plus oxaliplatin in the RIP-mOVA model.

OT-I T cells = OT-I T cells activated with cognate antigen and different antigen-presenting cells, with nutlin; format: cell-based, mouse
Excerpt: Under normal circumstances the signal to downregulate p53 is provided by engagement of the T cell antigen receptor (TCR) that activates MDM2 and targets p53 for degradation (Watanabe et al., (2014) Immunity 40: 681-691).
To test whether the effect of Ly6c^+CD103^+ dendritic cells was due to IL-12, OT-I T cells were activated using 3 different types of antigen-presenting cells (APCs).
Consistent with this, when dendritic cells were sorted from TDLNs of IL-12-deficient mice (IL-12p40-KO), treated with the same immunotherapy regimen, these dendritic cells were unable to rescue T cells from nutlin. T cell proliferation tracked concordantly with p53 levels. In these experiments with dendritic cells from TDLNs, feeder populations were added to maintain functional activity.

B16-OVA tumors = test: RIP-mOVA mice with OT-I cells and B16-OVA tumors, immunotherapy with or without nutlin-3a; format: in vivo
Experimental: It was then determined which of these opposing effects would prevail when the same antigen was both a tumor-antigen and self-antigen. RIP-mOVA mice expressing OVA as a self-antigen were implanted with B16-OVA tumors expressing OVA as a tumor antigen (Falo. Jr. et al., (1995) Nat. Med. 1: 649-653). Prior to tumor implantation, all mice received adoptive transfer of congenically-marked OT-I cells. After tumors were established, mice were treated with immunotherapy (PTEN-inhibitor plus chemotherapy), with or without nutlin-3a.
RIP-mOVA mice bearing B16-OVA tumors were treated with a cocktail of blocking antibodies against CTLA-4 plus PD-1, PD-L1 and PD-L2, with or without concurrent nutlin-3a.
as §1
The immune-activating effect of p53 is context-specific for the tumor milieu: The immunogenic effect of nutlin-3a seemed paradoxical because in most settings p53 is thought to be immunosuppressive (Munoz-Fontela et al., (2016) Nat. Rev. lmmunol. 16: 741-750; Thomasova et al., (2012) Neoplasia 14: 1097-1101). It was considered that p53 actually plays two roles in the immune system: a self-tolerance role in normal tissues during physiologic cell death (Yoon et al., (2015) Science 349: 1261669); but a pro-inflammatory role in certain specialized contexts such as immune-surveillance of tumors (Munoz-Fontela et al., (2016) Nat. Rev. lmmunol. 16: 741-750). To test this, a model in which OVA-expressing tumors were implanted in RIP-mOVA mice (which constitutively express OVA in pancreatic islet cells) was used. OVA thus became both a normal tissue antigen and a tumor antigen.

[1] = nutlin-3a added to VO-OHpic+CTX
[2] = activation with cognate antigen
[3] = nutlin added to checkpoint blockade
[4] = nutlin-3a 10 mg/kg/day added to CTX/VO-OHpic, FIG. 13
[5] = nutlin-3a 10 mg/kg/day added to CTX/VO-OHpic, FIG. 13, 10 mg/kg/day

COc1ccc(C2=NC(c3ccc(Cl)cc3)C(c3ccc(Cl)cc3)N2C(=O)N2CCNC(=O)C2)c(OC(C)C)c1 (single isomer, unassigned; (-)) [nutlin-3a, (−)-4-(4,5-Bis(4-chlorophenyl)-2-(2-isopropoxy-4-methoxyphenyl)-4,5-dihydro-1H-imidazole-1-carbonyl)piperazin-2-one]
anti-tumor effect (B16F10 tumors): maintained a prolonged anti-tumor response
anti-tumor effect (B16F10 tumors; listed as Nutlin-3a): markedly prolonged and maintained the anti-tumor effect
Ly6c+CD103+ dendritic cells in tumors (B16F10 tumors; [1]): large population
phospho-p53-Ser15 in dendritic cells (B16F10 tumors; [1]): sustained elevation
anti-tumor activity (E.G7 tumors): significantly enhancing the anti-tumor activity
autoimmune diabetes (E.G7 tumors): protected the mice from diabetes
down-regulation of p53 in OT-I T cells (OT-I T cells; CD11c+Ly6c+ dendritic cells from TDLNs of VO-OHpic+CTX treated mice as APCs): lost all ability to prevent down-regulation of p53
T cell proliferation (OT-I T cells; [2]): prevented T cell proliferation
total p53 in OT-I T cells (OT-I T cells; [2]): marked increase
down-regulation of p53 in OT-I T cells (OT-I T cells; dendritic cells from normal LNs as APCs): completely prevented
Ly6c+CD103+ dendritic cells in the tumors (B16-OVA tumors; [3]): maintained expression
anti-tumor effect (B16-OVA tumors; [3]): significantly enhancing and prolonging the anti-tumor effect
autoimmune diabetes (B16-OVA tumors; nutlin added to checkpoint blockade (CTLA-4 plus PD-1, PD-L1, PD-L2 antibodies)): protected recipient subjects from autoimmune diabetes
p53 in OT-I T cells in pancreatic LNs (B16-OVA tumors; nutlin added to immunotherapy): increase p53
p53 in OT-I T cells in TDLNs (B16-OVA tumors; nutlin added to immunotherapy, same animals): complete loss of detectable p53 expression
anti-tumor effect (B16-OVA tumors; [4]): markedly enhanced the anti-tumor response
autoimmune diabetes (B16-OVA tumors; [4]): fully protected from diabetes
anti-tumor effect (B16-OVA tumors; [5]): enhanced and prolonged
autoimmune diabetes (B16-OVA tumors; [5]): protected the mice from lethal autoimmunity
